Assay results as given in patent publication US7022680B2, “Inhibitors of ADP-ribosyl transferases, cyclases, and hydrolases” (Albert Einstein College of Medicine of Yeshiva University, priority 2002, dated 2006).
Where “and” joins values, the source holds several entries; their conditions need not be identical. Equal entries are not always repeated.

Legend:
[1] = target: T1, human CD38 (Homo sapiens, UniProt P28907); assay: Competitive and slow-onset inhibition of CD38-catalyzed conversion of NGD+ to cGDPR (295 nm absorbance); assay type: biochemical; set-up: The soluble domain of human CD38 catalyzes the conversion of NAD^+ to cyclic-ADP-ribose; conditions: even at millimolar concentrations (data not shown)
T1 sequence (P28907 43-300 limits assumed): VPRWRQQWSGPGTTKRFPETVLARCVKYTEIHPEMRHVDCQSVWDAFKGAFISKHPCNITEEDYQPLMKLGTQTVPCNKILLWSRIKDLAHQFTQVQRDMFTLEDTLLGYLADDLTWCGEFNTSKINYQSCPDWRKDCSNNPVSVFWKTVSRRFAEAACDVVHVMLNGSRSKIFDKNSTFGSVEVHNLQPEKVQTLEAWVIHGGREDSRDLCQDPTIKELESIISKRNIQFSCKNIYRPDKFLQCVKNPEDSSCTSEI
Protocol: Determination of Ki and kon by competitive method. To 1 mL solutions of 50 mM potassium phosphate pH 7.2 and 100 μM NGD^+ containing, 50, 25, 12.5, and 6.25 and 0 μM inhibitor 1 was added 2 μL of 7 μM CD38. Reaction progress upon initiation by enzyme addition was monitored by measurement of 295 nm absorbance. The initial slopes were used to determine the Ki value, and all points of the experiment were fit to the equation A(t)=vt+(b−v)(1−exp(−kt))/k+A0 where k is the observed rate constant, b is the initial rate, v is the final rate and A0 is the initial absorbance was used to evaluate kon.
Determination of Competitive Inhibition by Initial Rates: The inhibitors 1–3 were evaluated for inhibition of CD38 enzymatic activity using a spectrophotometric assay. CD38 catalyzes the conversion of NGD^+ to cyclic-GDP ribose (cGDPR, Scheme 4) and product formation can be monitored by 295 nm absorbance measurement. […] A similar reaction containing 40 μM NGD^+ at several concentrations of 2 was also performed (FIG. 3).
Slow Phase Inhibition. […] This slow phase was not due to substrate depletion and was attributable to a kinetic process leading to progressive inhibition of the enzyme. The “slow-onset” absorbance curves could be fit using the equation At=vit+(vi−vf)(1−exp(−kt))/k+A0 where At is absorbance, vi is initial velocity, vf is final velocity, t is time in s, k is the rate of the slow onset process and A0 is absorbance of the sample at initial time. These fits are shown by the solid lines in FIG. 2 and FIG. 3. The rate constant for the slow phase could be obtained from the average value of k determined from the separate fits. The value of k for 1 was determined to be 0.0042±0.001 s^−1 and the value of k for 2 was determined to be 0.0083±0.002 s^−1. The parameter k is defined as kon in Scheme 5. [drawing 19]

[2] = target: T2, CD38 (Homo sapiens, UniProt P28907); conditions: 37° C.; cited from earlier work
T2 sequence (P28907 1-300): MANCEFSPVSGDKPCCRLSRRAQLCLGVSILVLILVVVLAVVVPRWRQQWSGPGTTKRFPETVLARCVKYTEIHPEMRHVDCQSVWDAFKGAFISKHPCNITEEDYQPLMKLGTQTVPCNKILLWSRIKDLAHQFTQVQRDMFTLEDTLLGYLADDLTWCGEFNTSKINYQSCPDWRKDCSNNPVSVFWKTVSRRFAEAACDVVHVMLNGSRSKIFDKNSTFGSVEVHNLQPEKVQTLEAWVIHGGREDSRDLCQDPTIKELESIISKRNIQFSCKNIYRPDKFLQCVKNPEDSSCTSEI

[3] = target: T1, human CD38; assay: Radiochemical labeling of CD38 by [2'-3H] inhibitor (gel filtration, scintillation counting); assay type: binding; set-up: The soluble domain of human CD38 catalyzes the conversion of NAD^+ to cyclic-ADP-ribose; conditions: 9 μM inhibitor, 1.2 μM CD38 monomer, pH 7.5, 25° C.
Protocol: Radiochemical measurement of inhibitor binding. […] Inhibitor at 9 μM with specific radioactivity of 866 cpm/nmol, was incubated with 1.2 μM CD38 (monomer) in 1 mL 50 mM potassium phosphate (pH 7.5). The reactions were started by enzyme addition and quenched by freezing with a dry ice/acetone bath at 30, 60 90, 120, 250, 500, and 1000 s. Cooled (0° C.) gel filtration columns were used to separate protein with cooled (0° C.) 10 mM potassium phosphate as eluant. The frozen fraction were quickly thawed, applied to these columns and fractions collected in 1 mL volumes over the course of several minutes. Scintillation fluid (9 mL) was then added to each 1 mL fraction and samples counted. […] The observed radioactivity was fit using the equation A(t)=A0(1−exp(−kt))+B. where A0 is activity at reaction completion, k is the observed pseudo-first order rate constant and B is the activity of the blank.
Titration of Enzyme with [2′-^3H]Inhibitor. CD38 inactivation was accomplished using a radiolabeled inhibitor to assess inhibitor interactions with the enzyme independent from inhibition of the catalytic activity. This method allows the determination of the stoichiometry of covalent labeling, and detects cooperativity at multiple sites. […] (FIG. 8) within reasonable agreement with the rate constant for inactivation in kinetic assays of inhibition (kon=0.0042 s^−1 at 19° C.). […]

[4] = target: T1, human CD38; assay: Off-rate / recovery of inhibited CD38 in excess NGD+; assay type: biochemical; set-up: The soluble domain of human CD38 catalyzes the conversion of NAD^+ to cyclic-ADP-ribose; conditions: inhibited CD38 added to excess NGD+, 19° C.; for koff: read-out: koff, rate constant of recovery from inhibition
Protocol: Off-Rate Measurement. 500 nM CD38 in 50 mM potassium phosphate pH 7.2 was incubated with 15 μM inhibitor for 30 min at room temperature. 5 μL of the enzyme inhibitor solution was added to a cuvette containing 1 mL reaction of 50 mM potassium phosphate pH 7.5 containing 300 μM NGD^+ pre-chilled to 19° C. Production of […] was determined by monitoring 295 nm absorbance. The absorbance was fit to the equation A(t)=vt+(b−v)(1−exp(−kt))/k+A0 where A(t) is the absorbance, k is the rate constant of recovery, b is the initial rate, v is the final rate and A0 is the initial absorbance. A control lacking inhibitor but in all other respects identical was also run.
Recovery from Inhibition. […] The inhibitor off-rate provides the final parameter in the equation koff/kon*Ki=Ki(total) which is valid for the kinetic scheme of slow-onset inhibition shown in Scheme 5. This rate was obtained by a recovery protocol in which inhibited CD38 enzyme (by either 1 or 2) was added to a 200 μM solution of NGD^+. The solution 295 nm absorbance is monitored spectrophotometrically to assay conversion of NGD^+ to cGDPR as a consequence of regain of CD38 catlytic activity. […] The absorbance curves with the same equation used for slow-onset: At=vit+(vi−vf)(1−exp(−kt))/k+A0 where At is absorbance, vi is initial velocity, vf is final velocity, t is time in s, k is the rate of the recovery rate constant and A0 is the absorbance of the sample at initial time. The rate constant for the recovery phase was obtained from the average value of k determined from the separate fits. The value of koff for 1 was determined to be 1.5×10^−5 s^−1 and for 2 was determined to be 2.5×10^−5 S^−1.

[5] = Solution hydrolysis of the inhibitor; assay type: physicochemical; conditions: 10 mM potassium phosphate, pH 6.5, 25° C.
From the text: Without being bound to any particular mechanism, it is believed that the electron-contributing moiety on A stabilizes the compounds of the invention such that they are less susceptible to hydrolysis from the rest of the compound. For example, the compound β-1′-5-methyl-nicotinamide-2′-deoxyribose (established as an effective inhibitor of CD38 in the Example) was compared with β-1′-nicotinamide-2′-deoxyribose in its ability to resist solution hydrolysis. […] This difference in chemical stability means that β-1′-nicotinamide-2′-deoxyribose is 50% depleted from solution in 2 hours, whereas β-1′-5-methyl-nicotinamide-2′-deoxyribose is not hydrolyzed by 50% until 12 hours. This improved chemical stability improves the value of the compound, since it is available for action for longer periods of time in biological systems due to resistance to hydrolytic breakdown.

[6] = target: T1, human CD38; assay: CD38-catalyzed base exchange of 2 to 1 with nicotinamide, HPLC; assay type: biochemical; set-up: The soluble domain of human CD38 catalyzes the conversion of NAD^+ to cyclic-ADP-ribose; conditions: 75 μM 2, 1 μM CD38, nicotinamide, 19° C.
Protocol: Base-exchange reaction. […] These reactions were run separately in autosampler tubes held at 19° C. in a temperature regulated autosampler and assayed by multiinjection HPLC using 5 mM K2PO4H pH 5.0 and 2.5% MeOH as eluant. The quantity of 2 reacted and the quantity of 1 formed versus time was determined by integrations of the peaks for 1 and 2 with comparison to standards.

[7] = target: T1, human CD38; conditions: CD38 preincubated with inhibitor 2; saturating nicotinamide
Protocol: 10 mL CD38 (1 μM) in K2PO4H was incubated with 2 (10 μM) for 30 minutes at room temperature and subsequently placed on ice. […] To a two syringe Applied Photophysics spectrophotometer in fluorescence mode was added inhibited enzyme to one syringe and NGD^+ solution to the other. Fluorescence was used to monitor cGDPR formation and the total fluorescence curves fit using the activity recovery equation F(t)=vt+(b−v) (1−exp(−kt))/k+F0 where k is the observed rate constant, b is the initial rate, v is the final rate and F0 is the initial absorbance.
A stopped flow, two syringe fitted spectrophotometer was used to perform the experiments. The fluorescence of cGDPR was measured as a function of time to generate curves that contain an exponential and a linear phase prior to substrate exhaustion. These curves were fit to the equation Ft=vft+(vi−vf)(1−exp (−kt))/k+F0 as previously defined.

With NC(=O)c1ccc[n+](C2CC(O)C(CO)O2)c1 (single isomer, unassigned) [α isomer of 1] the “inhibition of CD38 conversion of NGD+ to cGDPR” value (from here on “inhibition … to cGDPR”) [1] was “did not inhibit”.
With Cc1cc(C(N)=O)c[n+](C2CC(O)C(CO)O2)c1 (single isomer, unassigned) [α isomer of 2] the “inhibition … to cGDPR” value [1] was “did not inhibit”.
In the case of NC(=O)c1ccc[n+]([C@@H]2O[C@H](COP(=O)(O)O)[C@@H](O)[C@H]2O)c1 [NMN^+], the “ratio of the rates of turnover of CD38 covalent intermediates, NMN+ versus ara-F-NMN+” value [2] is listed as ~10^7.
In the case of [3H]C1[C@H]([n+]2cccc(C(N)=O)c2)O[C@H](CO)[C@H]1O (stereo partly shown) [[2′-^3H]-1, [2′-^3H]Nicotinamide deoxyriboside], the “rate constant of radiochemical labeling of CD38 (kchem)” value [3] is reported as 0.01 s⁻¹.
In the case of NC(=O)c1ccc[n+]([C@H]2C[C@H](O)[C@@H](CO)O2)c1 [inhibitor 1, nicotinamide-2′-deoxyriboside], the “koff, rate constant of recovery from inhibition” value [4] is reported as 1.5e-05 s⁻¹, the koff [4] is reported as roughly 2e-05 s⁻¹ and the “time until 50% depleted from solution by hydrolysis” value [5] is reported as 2 h.
In the case of Cc1cc(C(N)=O)c[n+]([C@H]2C[C@H](O)[C@@H](CO)O2)c1 [inhibitor 2, 5-methyl-nicotinamide-2′-deoxyriboside], the “kcat of base exchange (2 to 1)” value [6] is reported as 0.007 s⁻¹, the “koff, rate constant of recovery from inhibition” value [4] is reported as 2.5e-05 s⁻¹ and the koff [4] is reported as roughly 2e-05 s⁻¹. For the same compound, the “time until 50% depleted from solution by hydrolysis” value [5] was 12 h.
With OC[C@H]1O[C@@H]([n+]2ccccc2)C[C@@H]1O [inhibitor 3, pyridyl-2′-deoxyriboside] the “inhibition … to cGDPR” value [1] was “did not inhibit”.
For NC(=O)c1cccnc1 [nicotinamide], the “maximum rate of rescue (kbase)” value [7] was 0.023 s⁻¹ and 0.024 s⁻¹.
